Consider 11 compounds from ChEMBL document CHEMBL1201862, “PubChem BioAssay data set” (2004).

Holding throughout (assay): NCI-60 cell line screen, 48 h
For assay [1], the system named is A549.
Assay [2] concerns CAKI-1.
For assay [3], the system named is CCRF-CEM.
Assay [4] concerns COLO 205.
Assay [5] has as its system EKVX.
The test system of assay [6] is HCC 2998.
In assay [7] the test system is HOP-62.
Assay [8] concerns KM12.
Assay [9] deals with LOX IMVI.
Assay [10] relates to MOLT-4.
The test system of assay [11] is NCI-H23.
The test system of assay [12] is OVCAR-4.
Assay [13] has as its system SF-268.
The subject of assay [14] is SF-539.
Assay [15] relates to SK-MEL-5.
Assay [16] relates to SK-OV-3.
The test system of assay [17] is SNB-19.
Assay [18] has as its system UACC-62.
Assay [19] has as its system UO-31.
Assay [20] has as its system SK-MEL-2.

SMILES strings stand for the structures.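 Cells were grown in 96-well plates and exposed to each compound for 48 hours at five concentrations; endpoints were interpolated linearly between bracketing concentrations, or set to the highest concentration if not reached. GI50: concentration for 50% inhibition of growth.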 Active and inactive are the calls of the source. No stated cut-off is given here; in the data, active = GI50 up to about 1.1 µM and inactive = higher. Some results are limits rather than exact numbers.

Consider `Oc1c(Cl)ccc2cccnc12`, for which the GI50 is 3.96 µM (inactive) in assay [1]; 3.25 µM (inactive) in assay [2]; 0.347 µM (active) in [3]; 4.25 µM (inactive) in assay [4]; 3.43 µM (inactive) in [5]; 12.7 µM (inactive) in [6]. Also, the GI50 in assay [7] is 3.75 µM (inactive); in assay [8] it was 4.88 µM (inactive); in [9], 1.94 µM (inactive); in assay [10], 1.84 µM (inactive); in assay [11], 5.06 µM (inactive); in [12] it was 3.21 µM (inactive). Also, the GI50 was 2.72 µM (inactive) in assay [13]; 3.4 µM (inactive) in assay [14]; 3.42 µM (inactive) in assay [15]; 4.71 µM (inactive) in [16]; 13.3 µM (inactive) in assay [17]; 2.24 µM (inactive) in assay [18]. For the same compound, in assay [19], the GI50 is 3.35 µM (inactive).
With `CS/C(=N/C(=O)c1ccccc1)SCCS/C(=N\C(=O)c1ccccc1)SC`, the GI50 in assay [1], in assay [2], in assay [3], in [4], in [5] and in assay [6] was > 100 µM (inactive) in each case. Besides, the GI50 in assay [7] is 62.2 µM (inactive); in [8] it was > 100 µM (inactive); in assay [9] it was > 100 µM (inactive); in [10], > 100 µM (inactive); in [11], > 100 µM (inactive); in assay [12], 25 µM (inactive). The GI50 in [13] is > 100 µM (inactive); in assay [14], 65.5 µM (inactive); in assay [20], > 100 µM (inactive); in [15], > 100 µM (inactive); in assay [17] it was > 100 µM (inactive); in [18] it was > 100 µM (inactive). For the same compound, in [19], the GI50 is > 100 µM (inactive).
As to `OCCCc1cnco1`, the GI50 in [1], in assay [2], in assay [3], in [4], in [5] and in [6] was > 100 µM (inactive) each time. The GI50 in [7], in assay [8], in [9], in assay [10], in assay [11] and in [12] was > 100 µM (inactive) each time. In addition, the GI50 in assay [13], in assay [14], in assay [15], in [16], in [17] and in assay [18] was > 100 µM (inactive) each time. Further, in [19], the GI50 is > 100 µM (inactive).
For the compound `COC(=O)C1=C(SC)SC2(C(=O)OC)C3C=C(C)C4C(N13)C42C(=O)OC` (configuration not stated), the GI50 in assay [1], in assay [2], in assay [3], in assay [4], in assay [5] and in assay [6] was > 100 µM (inactive) in each case. In addition, the GI50 in [7], in assay [9], in [10], in assay [11], in assay [13] and in assay [14] was > 100 µM (inactive) each time. The GI50 in [20] is > 100 µM (inactive); in assay [15], 83.6 µM (inactive); in [16], > 100 µM (inactive); in [17] it was > 100 µM (inactive); in assay [18], > 100 µM (inactive); in assay [19], > 100 µM (inactive).
Turning to `O=C1c2ccccc2-c2c1c(-c1ccc([N+](=O)[O-])cc1)nc1ccc3ccccc3c21`, the GI50 in [1], in assay [2], in assay [3], in [4], in assay [5] and in assay [6] was > 100 µM (inactive) throughout. For the same compound, the GI50 in assay [7], in assay [8], in [10], in assay [11], in assay [12] and in [13] was > 100 µM (inactive) throughout. In addition, the GI50 in [14], in assay [20], in assay [16], in assay [17], in assay [18] and in assay [19] was > 100 µM (inactive) throughout.
Regarding `O=C(CCCN1CCc2[nH]c3cc(F)ccc3c2C1)c1ccc(F)cc1`, the GI50 in assay [1] is 15.8 µM (inactive); in [2], > 100 µM (inactive); in assay [3], 12 µM (inactive); in [4], 4.84 µM (inactive); in [5] it was 14.8 µM (inactive); in [6], 3.33 µM (inactive). Besides, the GI50 was 16.1 µM (inactive) in assay [7]; 13.9 µM (inactive) in assay [8]; 3.95 µM (inactive) in assay [9]; 13 µM (inactive) in [10]; 14.1 µM (inactive) in assay [11]; 13.8 µM (inactive) in [12]. Moreover, the GI50 in [13] is 13.1 µM (inactive); in [14] it was 16.7 µM (inactive); in [20], 18 µM (inactive); in assay [15] it was 17.1 µM (inactive); in assay [17] it was > 100 µM (inactive); in [18], 12.7 µM (inactive).
For `CN(C)CCNC(=O)c1cc(-c2nccn2C)nc2ccccc12`, the GI50 in assay [1], in assay [2], in assay [3], in [4], in assay [5] and in [6] was > 100 µM (inactive) each time. In addition, the GI50 in assay [7] was 50.8 µM (inactive); in assay [8], > 100 µM (inactive); in [9], > 100 µM (inactive); in assay [10] it was > 100 µM (inactive); in assay [11], > 100 µM (inactive); in assay [13], > 100 µM (inactive). The GI50 is > 100 µM (inactive) in [14]; > 100 µM (inactive) in [20]; > 100 µM (inactive) in assay [15]; > 100 µM (inactive) in assay [17]; > 100 µM (inactive) in [18]; 52.8 µM (inactive) in assay [19].
With `CSc1c(C#N)c(N)n2c1C(=O)N(c1ccccc1)C2=S`, the GI50 in assay [1] is > 100 µM (inactive); in [2], 77.1 µM (inactive); in assay [3] it was 68.2 µM (inactive); in [4], 30 µM (inactive); in assay [5], 8.2 µM (inactive); in assay [6], > 100 µM (inactive). Further, the GI50 in assay [7] is 63 µM (inactive); in [8], 51.5 µM (inactive); in [9], 72.1 µM (inactive); in assay [10], > 100 µM (inactive); in assay [11], 28.2 µM (inactive); in [12], 26.5 µM (inactive). In addition, the GI50 in assay [13] was 88.1 µM (inactive); in assay [14], 92.7 µM (inactive); in assay [15] it was > 100 µM (inactive); in assay [16], 91.6 µM (inactive); in assay [17], > 100 µM (inactive); in assay [18], > 100 µM (inactive). In addition, the GI50 in [19] was > 100 µM (inactive).
Turning to `CCOC(=O)Nc1ccc(S(=O)(=O)I)cc1.CCOC(=O)Nc1ccc(S(=O)(=O)I)cc1.CNC(=O)N=O.NC(=O)OCCCl`, the GI50 in [1] was > 100 µM (inactive); in [2] it was > 100 µM (inactive); in assay [3] it was 74.8 µM (inactive); in assay [4], > 100 µM (inactive); in assay [6] it was > 100 µM (inactive); in assay [7] it was 46.7 µM (inactive). Besides, the GI50 in assay [8], in [9], in assay [10], in assay [11], in assay [13] and in assay [14] was > 100 µM (inactive) each time. The GI50 is 43.6 µM (inactive) in assay [20]; > 100 µM (inactive) in assay [15]; > 100 µM (inactive) in assay [16]; > 100 µM (inactive) in assay [17]; 73.6 µM (inactive) in assay [18]; > 100 µM (inactive) in [19].
For `C/C(C=O)=C1\C(O)C[C@]1(C)C1CC(C)(C)CC1O` (some centres not stated), the GI50 in assay [1] was > 100 µM (inactive); in assay [2], > 100 µM (inactive); in [3], 26.7 µM (inactive); in [4], > 100 µM (inactive); in assay [5], > 100 µM (inactive); in [6] it was > 100 µM (inactive). Besides, the GI50 in [7] is > 100 µM (inactive); in [8] it was > 100 µM (inactive); in assay [9], > 100 µM (inactive); in assay [10], 35.7 µM (inactive); in [11], > 100 µM (inactive); in assay [12], 35.7 µM (inactive). The GI50 in assay [13] is > 100 µM (inactive); in [14] it was 49.1 µM (inactive); in assay [20], > 100 µM (inactive); in assay [15], > 100 µM (inactive); in assay [17] it was > 100 µM (inactive); in assay [19], > 100 µM (inactive).
As to `COc1c(Br)cc(/C=C(\C#N)c2ccccn2)cc1Br`, the GI50 in [1] is > 100 µM (inactive); in assay [2], > 100 µM (inactive); in [3], > 100 µM (inactive); in assay [4], > 100 µM (inactive); in [5], 1.26 µM (inactive); in assay [6], > 100 µM (inactive). For the same compound, the GI50 in assay [7] is 22.2 µM (inactive); in assay [8] it was > 100 µM (inactive); in [10], > 100 µM (inactive); in [11], 41.7 µM (inactive); in assay [13], 23.2 µM (inactive); in [14], 33.4 µM (inactive). For the same compound, the GI50 was 13.8 µM (inactive) in assay [20]; > 100 µM (inactive) in assay [15]; 15.3 µM (inactive) in [16]; > 100 µM (inactive) in assay [17]; 10.8 µM (inactive) in assay [18]; > 100 µM (inactive) in assay [19].
